Target: T1, Nuclear receptor ROR-alpha (Homo sapiens, UniProt P35398)
T1 sequence (P35398 whole entry): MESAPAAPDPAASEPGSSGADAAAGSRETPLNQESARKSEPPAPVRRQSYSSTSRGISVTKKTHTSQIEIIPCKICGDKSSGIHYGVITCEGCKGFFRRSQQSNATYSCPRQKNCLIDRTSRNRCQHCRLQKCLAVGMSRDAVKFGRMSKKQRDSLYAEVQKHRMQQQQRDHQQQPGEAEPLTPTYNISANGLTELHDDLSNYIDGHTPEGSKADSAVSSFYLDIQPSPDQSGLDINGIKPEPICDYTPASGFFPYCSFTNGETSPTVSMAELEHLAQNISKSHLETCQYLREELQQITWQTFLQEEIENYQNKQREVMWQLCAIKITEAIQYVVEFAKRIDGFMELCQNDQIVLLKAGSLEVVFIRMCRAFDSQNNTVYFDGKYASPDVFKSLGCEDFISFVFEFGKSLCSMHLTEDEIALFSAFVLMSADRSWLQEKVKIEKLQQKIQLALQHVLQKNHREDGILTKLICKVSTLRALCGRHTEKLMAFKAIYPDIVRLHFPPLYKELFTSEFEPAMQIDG
Assay: Partial agonist activity at GST-fussed RORalpha (unknown origin) assessed as recruitment of TIF2-BAP protein after overnight incubation by pull down assay

EC50, > 30 µM:
CCOC(=O)C1C(CC)=NC(=O)NC1c1ccc(OCc2ccccc2)c(OC)c1 (stereo unspecified)
CCOC(=O)C1C(C)=NC(=O)N(C)C1c1ccc(OCc2ccccc2)c(OC)c1 (stereo unspecified)
CC1=NC(=O)NC(c2ccc(OCc3ccccc3)cc2)C1C(=O)OCC(F)(F)F (stereo unspecified)
COc1cc(C2NC(=O)N=C(C)C2C(=O)OCC(F)(F)F)ccc1OCc1ccccc1 (stereo unspecified)
COc1cc(C2NC(=O)N=C(C)C2C(=O)OCCSC)ccc1OCc1ccccc1 (stereo unspecified)
COc1cc(C2NC(=O)N=C(C)C2C(=O)OCc2ccccc2)ccc1OCc1ccccc1 (stereo unspecified)

— BindingDB's records for doi:10.1021/ml300471d (Genfit, 2013)
